Assay results from patent publication US10766866B2, “Deterrents for arthropods and marine organisms” (priority 2017, dated 2020).

Tests used:
[1] = molecular target: T1, human α2C adrenergic receptor (α2c-AR) (Homo sapiens, UniProt P18825); assay: Measurement of intracellular cAMP (cAMP-Glo); format: cell-based, Homo sapien; conditions: in words; normalized to 1 μM forskolin; FIG. 8
T1 construct: expressed in transfected cells
T1 sequence (P18825 1-462): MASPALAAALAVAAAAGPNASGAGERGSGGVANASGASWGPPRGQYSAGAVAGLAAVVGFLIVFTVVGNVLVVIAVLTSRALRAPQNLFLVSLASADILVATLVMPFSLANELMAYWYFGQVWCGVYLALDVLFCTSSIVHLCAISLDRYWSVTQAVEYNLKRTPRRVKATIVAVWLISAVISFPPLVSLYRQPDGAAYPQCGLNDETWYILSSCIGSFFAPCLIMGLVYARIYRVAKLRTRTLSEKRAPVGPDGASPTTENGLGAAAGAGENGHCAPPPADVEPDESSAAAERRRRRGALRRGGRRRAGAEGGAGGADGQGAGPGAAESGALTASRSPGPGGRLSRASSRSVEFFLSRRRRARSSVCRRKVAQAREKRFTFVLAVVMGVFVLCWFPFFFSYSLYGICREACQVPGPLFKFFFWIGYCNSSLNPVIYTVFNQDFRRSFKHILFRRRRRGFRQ
From the text: (§1) Functional expression of cloned arthropod OctRs and human α2-ARs: The cDNAs for α-like OctRs from different arthropod species (e.g., Anopheles gambiae, Aedes aegypti, Periplaneta americana, Drosophila melanogaster, Ixodes scapularis, Balanus improvises) and for α2-AR subtypes from humans were individually subcloned into mammalian expression vectors. These plasmids, which harbor a resistance gene for the selection drug G418 and the cDNA sequence for the receptor of interest, were individually transfected into mammalian cells using a calcium phosphate precipitation method. G418 selection was then employed to generated stable clonal cell lines. Utilizing rapid filtration radioligand binding techniques, the cell surface density of receptor expression of the individual clonal cell lines was determined at equilibrium and those with similar high levels of expression were selected for further experiments. […] The radioligand was [3H]rauwolscine and non-specific binding was determined in the presence of 10 μM atipamezole. […] The radioactivity remaining on the filters was quantified by scintillation counting. Receptor density (Bmax) was back calculated knowing the specific activity of the radioligand and applying the equation for a square hyperbola model: Bmax=(Y·(KD+X))/X, where Y is [specifically bound radioligand] and X=[radio ligand concentration]. […]

[2] = test system: Ixodes scapularis tick OctR (IsTOctR); assay: OctR activation, change in intracellular calcium; format: cell-based
From the text: (§2) Functional expression of cloned arthropod OctRs and human α2-ARs: The cDNAs for α-like OctRs from different arthropod species (e.g., Anopheles gambiae, Aedes aegypti, Periplaneta americana, Drosophila melanogaster, Ixodes scapularis, Balanus improvises) and for α2-AR subtypes from humans were individually subcloned into mammalian expression vectors. These plasmids, which harbor a resistance gene for the selection drug G418 and the cDNA sequence for the receptor of interest, were individually transfected into mammalian cells using a calcium phosphate precipitation method. G418 selection was then employed to generated stable clonal cell lines. Utilizing rapid filtration radioligand binding techniques, the cell surface density of receptor expression of the individual clonal cell lines was determined at equilibrium and those with similar high levels of expression were selected for further experiments. Briefly, binding conditions were 50 mM Tris binding buffer pH 7.4 at 25° C. and an ice-cold wash buffer 10 mM Tris-HCl, pH 7.4). The radioligand was [3H]rauwolscine and non-specific binding was determined in the presence of 10 μM atipamezole. Following the addition of membranes prepared from the clonal cell lines, samples were mixed and allowed 2 hr. to reach equilibrium before rapid filtration and washing through 0.3% PEI-treated GF/C filters. The radioactivity remaining on the filters was quantified by scintillation counting. Receptor density (Bmax) was back calculated knowing the specific activity of the radioligand and applying the equation for a square hyperbola model: Bmax=(Y·(KD+X))/X, where Y is [specifically bound radioligand] and X=[radio ligand concentration]. The affinity (KD) for the radioligand for each receptor was determined in separate saturation isotherm binding experiments using the same binding conditions as describe above.
(§3) Measurement of OctR activation by measuring changes in intracellular calcium: Activation of arthropod α-like OctRs increases intracellular calcium via a Gq-coupling mechanism. This involves activation of phospholipase C leading to an increase in intracellular inositol triphosphate (IP3) which then activates IP3-gated calcium channels in the endoplasmic reticulum causing a transient rise in intracellular calcium. These changes in intracellular calcium upon OctR activation were measured by loading cells with intracellular calcium sensitive dye CALCIUM 6QR and reading the change in calcium-induced fluorescent signal over time on a FlexStation 3 microplate reader.

[3] = test system: Anopheles gambiae mosquito isoform A OctR (AgAOctR); assay: OctR activation, change in intracellular calcium; format: cell-based; conditions: for selectivity Ki(Hsα2-AR)/EC50(OctR): AgAOctR over Homo sapien α2-AR subtypes
From the text: as §2, §3

[4] = test system: IsTOctR (Ixodes octopamine receptor), cloned α-like OctR; assay: OctR activation: change in intracellular calcium (CALCIUM 6QR dye, FlexStation 3) in stably transfected mammalian cells; format: cell-based, Ixodes scapularis; conditions: agonist, read-out: IsTOctR (Ixodes octopamine receptor) EC50
From the text: as §2, §3

[5] = molecular target: T2, Hsα2C-AR (human α2C adrenergic receptor) (Homo sapiens, UniProt P18825); assay: [3H]rauwolscine competition radioligand binding, membranes of clonal mammalian cell lines; conditions: 50 mM Tris pH 7.4, 25° C., 2 hr, Cheng-Prusoff
T2 construct: expressed in transfected cells
T2 sequence (P18825 1-462): T1 sequence (P18825 1-462)
From the text: as §2
(§4) Measurement of compound affinities by competition radioligand binding: Affinities (Ki) for compounds were determined by [3H]rauwolscine competition binding using the same binding conditions as described above. The Ki values were calculated from IC50 values using the Cheng-Prusoff equation.

[6] = molecular target: T3, Hsα2A-AR (human α2A adrenergic receptor) (Homo sapiens, UniProt P08913); assay: as above; conditions: 50 mM Tris pH 7.4, 25° C., 2 hr, Cheng-Prusoff
T3 construct: expressed in transfected cells; membranes
T3 sequence (P08913 whole entry): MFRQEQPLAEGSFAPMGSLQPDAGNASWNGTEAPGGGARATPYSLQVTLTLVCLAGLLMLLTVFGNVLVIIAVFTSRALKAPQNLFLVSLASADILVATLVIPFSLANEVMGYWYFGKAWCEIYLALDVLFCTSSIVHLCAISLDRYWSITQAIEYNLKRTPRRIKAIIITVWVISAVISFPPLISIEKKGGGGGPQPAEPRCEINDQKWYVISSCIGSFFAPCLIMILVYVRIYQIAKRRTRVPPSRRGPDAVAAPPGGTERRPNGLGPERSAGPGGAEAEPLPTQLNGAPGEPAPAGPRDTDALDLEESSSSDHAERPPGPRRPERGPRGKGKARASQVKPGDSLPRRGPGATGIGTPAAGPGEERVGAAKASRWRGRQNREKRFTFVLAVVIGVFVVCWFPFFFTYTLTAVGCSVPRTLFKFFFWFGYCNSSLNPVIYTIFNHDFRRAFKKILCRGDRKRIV
From the text: as §2, §4

[7] = test system: AeOctR (Aedes octopamine receptor), cloned α-like OctR; assay: OctR activation: change in intracellular calcium (CALCIUM 6QR dye, FlexStation 3) in stably transfected mammalian cells; format: cell-based, Aedes aegypti; conditions: agonist
From the text: as §2, §3

[8] = molecular target: T4, AgAOctR (Anopheles octopamine receptor isoform A), cloned α-like OctR (Anopheles gambiae, UniProt Q7PRZ8); assay: as above; format: cell-based; conditions: agonist
T4 construct: Gq calcium readout
T4 sequence (Q7PRZ8 1-592): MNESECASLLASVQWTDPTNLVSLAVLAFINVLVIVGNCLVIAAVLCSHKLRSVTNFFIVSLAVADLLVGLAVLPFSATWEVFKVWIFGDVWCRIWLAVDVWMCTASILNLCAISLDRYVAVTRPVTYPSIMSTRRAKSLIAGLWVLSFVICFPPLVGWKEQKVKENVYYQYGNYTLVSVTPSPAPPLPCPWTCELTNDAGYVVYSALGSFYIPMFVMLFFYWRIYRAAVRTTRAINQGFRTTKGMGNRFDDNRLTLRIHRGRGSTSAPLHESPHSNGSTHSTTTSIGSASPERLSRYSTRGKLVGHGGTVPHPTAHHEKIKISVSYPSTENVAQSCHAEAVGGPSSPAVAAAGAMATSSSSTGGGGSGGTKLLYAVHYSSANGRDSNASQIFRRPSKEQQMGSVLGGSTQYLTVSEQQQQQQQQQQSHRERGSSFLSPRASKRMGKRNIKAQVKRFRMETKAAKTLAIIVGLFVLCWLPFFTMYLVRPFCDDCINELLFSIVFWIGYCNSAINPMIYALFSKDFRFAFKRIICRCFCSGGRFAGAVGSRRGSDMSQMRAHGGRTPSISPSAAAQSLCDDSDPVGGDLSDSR
From the text: as §2, §3

[9] = molecular target: T1, human α2C adrenergic receptor (α2c-AR); assay: Intracellular cyclic AMP (cAMP-Glo) functional assay, stably transfected mammalian cells; format: cell-based
From the text: as §1

α-like OctRs = assay: OctR activation, change in intracellular calcium (statements on OctRs in general); format: cell-based; conditions: relative to fluorinated AZ1411
From the text: as §1

α2-ARs = assay: Functional profile at α2-ARs (preliminary studies); format: cell-based, Homo sapien
From the text: as §1

C=C(c1cnc[nH]1)c1cccc(F)c1C [AZ1411]
efficacy (change in intracellular cyclic AMP) [1]: partial agonist
potency (change in intracellular cyclic AMP) [1]: low potency
selectivity Ki(Hsα2-AR)/EC50(OctR) ([2]; Ixodes tick OctR over Homo sapien α2-AR subtypes): highly selective
selectivity Ki(Hsα2-AR)/EC50(OctR) [3]: highly selective
EC50 [4]: 2.9 ± 1.3 nM
Ki [5]: 3530 ± 1590 nM
Ki [6]: 494 ± 177 nM
EC50 [7]: 81 ± 46 nM
EC50 [8]: 0.11 ± 0.058 nM
EC50 [9]: 931 nM

C=C(c1cnc[nH]1)c1cccc(Cl)c1C [AZ1436]
potency (EC50) ([2]; in words, FIG. 9): potent
efficacy (full/partial agonist) ([2]; in words, FIGS. 9, 11): full agonist
selectivity Ki(Hsα2-AR)/EC50(OctR) [3]: highly selective
efficacy (full/partial agonist) ([3]; in words, FIGS. 9-12): full agonist
potency (EC50) ([3]; in words, FIGS. 9-12): potent
EC50 [4]: 1.8 ± 0.83 nM
potency for OctRs compared with AZ1411 (α-like OctRs): 2-4
functional mode at α2-ARs (α2-ARs): likely an antagonist
EC50 [8]: 0.025 ± 0.0019 nM
